Like-named read-outs stand apart in the source and are kept apart here.
What was measured:
T cells [1] = test: T cell viability after 16 hours pre-incubation with CHP components; settings: pretreatment of T cells, 16 hours (data not shown)
T cells [2] = tested on: T cells
[3] = tested on: relapsed or refractory (R/R) B-NHL, highly refractory large B-cell lymphoma; settings: monotherapy, n=157; cited from earlier work
[4] = tested on: CD20-expressing Raji-luc tumor cells; settings: NOD-SCID mice injected with Raji-luc tumor cells and PBMCs; even in presence of excess IgG1-RTX-FEAR; cited from earlier work
[5] = tested on: primary DLBCL and follicular lymphoma patient biopsies; settings: cited from earlier work

Compound: COc1cccc2c1C(=O)c1c(O)c3c(c(O)c1C2=O)C[C@@](O)(C(=O)CO)C[C@@H]3O[C@H]1C[C@H](N)[C@H](O)[C@H](C)O1 [doxorubicin]
- T cell viability (T cells [1]): led to a reduction in T cell viability

Compound: O=P1(N(CCCl)CCCl)NCCCO1 (stereo not drawn) [cyclophosphamide, 2H-1,3,2-Oxazaphosphorin-2-amine, N,N-bis(2-chloroethyl)tetrahydro-, 2-oxide]
- T cell viability (T cells [2]): did not impact T cell viability

Compound: epcoritamab
- complete response (CR) rate [3]: 39%
- median duration of response (DOR) [3]: 12 months
- overall response rate (ORR) [3]: 63%
- safety profile [3]: manageable safety profile
- tumor growth [4]: effectively reduce tumor growth
- T-cell-mediated cytotoxicity ([5]; biopsies taken a certain amount of time after administration of an anti-CD20 antibody): induced T-cell-mediated cytotoxicity
- tumor cell kill ([5]; biopsy taken 2 weeks after administering anti-CD20 antibody): up to 40%

Reference: US20230303693A1, “BISPECIFIC ANTIBODY AGAINST CD3 AND CD20 IN COMBINATION THERAPY FOR TREATING DIFFUSE LARGE B-CELL LYMPHOMA” (GENMAB A/S, priority 2022, published 2023)
